Source: patent publication US11786527B2, “Pharmaceutical composition and preparation method therefor and uses thereof” (WUXI SHUANGLIANG BIOTECHNOLOGY CO., LTD., priority 2018, dated 2023)

Tests used:
[1] = Solubility and solution stability of C-005 and its salts; type: physicochemical
[2] = system: activated form and resistant mutant form of EGFR; conditions: cited from earlier work
WT EGFR = WT EGFR (Homo sapiens, UniProt P00533); conditions: cited from earlier work
Sequence of WT EGFR (P00533 25-1210): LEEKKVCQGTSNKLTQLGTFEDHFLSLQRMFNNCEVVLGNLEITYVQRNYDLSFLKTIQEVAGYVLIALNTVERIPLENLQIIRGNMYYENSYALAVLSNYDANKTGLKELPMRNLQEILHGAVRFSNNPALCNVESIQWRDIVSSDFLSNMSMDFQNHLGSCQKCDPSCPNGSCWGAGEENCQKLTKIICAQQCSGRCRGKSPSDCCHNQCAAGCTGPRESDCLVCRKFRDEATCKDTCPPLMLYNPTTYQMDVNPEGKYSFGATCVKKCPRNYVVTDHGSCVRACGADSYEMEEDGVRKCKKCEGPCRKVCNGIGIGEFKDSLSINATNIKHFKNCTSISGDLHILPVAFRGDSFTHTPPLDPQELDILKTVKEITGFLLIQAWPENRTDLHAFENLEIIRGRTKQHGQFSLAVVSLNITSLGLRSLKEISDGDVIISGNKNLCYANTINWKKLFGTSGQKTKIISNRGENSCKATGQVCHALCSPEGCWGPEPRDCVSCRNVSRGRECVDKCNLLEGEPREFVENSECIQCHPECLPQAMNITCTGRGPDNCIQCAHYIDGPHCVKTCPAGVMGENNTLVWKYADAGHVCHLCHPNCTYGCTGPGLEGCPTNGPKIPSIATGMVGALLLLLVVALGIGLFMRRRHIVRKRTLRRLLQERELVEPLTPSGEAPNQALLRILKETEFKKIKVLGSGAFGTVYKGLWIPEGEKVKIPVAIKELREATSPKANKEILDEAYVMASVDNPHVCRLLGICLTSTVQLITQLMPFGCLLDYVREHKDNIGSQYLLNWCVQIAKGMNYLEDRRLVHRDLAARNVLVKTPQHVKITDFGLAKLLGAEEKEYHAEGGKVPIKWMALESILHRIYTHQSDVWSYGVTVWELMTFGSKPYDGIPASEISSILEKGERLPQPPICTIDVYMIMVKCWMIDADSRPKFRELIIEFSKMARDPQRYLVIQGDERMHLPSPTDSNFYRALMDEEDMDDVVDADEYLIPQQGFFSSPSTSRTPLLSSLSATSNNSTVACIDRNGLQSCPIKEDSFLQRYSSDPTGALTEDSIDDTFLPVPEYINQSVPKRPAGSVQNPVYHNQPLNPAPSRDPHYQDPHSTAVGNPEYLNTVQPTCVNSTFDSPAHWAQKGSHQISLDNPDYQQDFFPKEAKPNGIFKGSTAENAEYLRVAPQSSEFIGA

SMILES	pH dependence of solubility (and permeability) [1]	Solubility in simulated gastric fluid compared to the solubility in aqueous solution ([1]; simulated gastric fluid (pH 1.2) vs aqueous solution (pH 7))	Inhibition of activated form and resistant mutant form of EGFR [2]	Inhibitory activity against WT EGFR (WT EGFR)	Time period for which the solution is stable and does not precipitate ([1]; solution of the citrate, once formed)	Solubility compared with C-005 in the free-base form ([1]; under the pH conditions in intestine)
C=CC(=O)Nc1cc(Nc2nccc(-c3cn(C)c4cccnc34)n2)c(OC)cc1N(C)CCN(C)C [C-005, N-(2-((2-(dimethylamino)ethyl)(methyl)amino)-4-methoxy-5-((4-(1-methyl-1H-pyrrolo[3,2-b]pyridin-3-yl)pyrimidin-2-yl)amino)phenyl)acrylamide]	significant pH-dependent solubility and permeability	approximately 40 times	inhibit both activated form and resistant mutant form of EGFR	relatively low inhibitory activity		
C=CC(=O)Nc1cc(Nc2nccc(-c3cn(C)c4cccnc34)n2)c(OC)cc1N(C)CCN(C)C.O=C(O)CC(O)(CC(=O)O)C(=O)O [C-005 citrate, N-(2-((2-(dimethylamino)ethyl)(methyl)amino)-4-methoxy-5-((4-(1-methyl-1H-pyrrolo[3,2-b]pyridin-3-yl)pyrimidin-2-yl)amino)phenyl)acrylamide citrate]					at least 24 hours	significantly higher
